Data taken from patent US4888353A, “Carboxamides useful as antiemetic or antipsychotic agents” (Erbamont, Inc., priority 1986, dated 1989).
Where two headings read alike, the source gives them in different places.

How the values were obtained:
[1] = system: apomorphine emesis; assay: Antiemetic screen: Apomorphine Emesis (Dog); format: in vivo, Beagle dogs; details: s.c., apomorphine HCl 0.1 mg/kg sc one hour after test compound, 2 dogs; for ED100: Canis lupus familiaris, sc, 1 h, read-out: 100% Effect Dosage level (dosage at which both animals were protected from apomorphine emesis)
Protocol: Each of the test compounds shown in Table VIII was administered subcutaneously to two Beagle dogs at dosage levels of 0.05, 0.1, 1.0 and 10.0 mg/kg. One hour following administration of the test compound, each animal received 0.1 mg/kg, sc, of apomorphine HCl. Apomorphine consistently evokes an immediate emetic response through direct dopaminergic interaction at the medullary chemoreceptor trigger zone (CTZ). Antiemetic compounds which act at the CTZ and/or the midbrain vomiting center will block this effect. If both animals receiving a particular treatment are protected, (i.e., no emetic response within one hour after apomorphine), the test compound is considered active.

[2] = system: apomorphine induced climbing behavior; assay: Antipsychotic screen: apomorphine induced climbing behavior; format: in vivo; details: mouse, apomorphine 1 mg/kg, observed 20 minutes after; for ED50: 20 min, read-out: Approx. 50% ED, apomorphine climbing
Protocol: The effect of each of the benzofurancarboxamides shown in Table VIII below on apomorphine induced climbing behavior was tested under the conditions described by Costetin et al. "Rapid and Dissociated Changes in Sensitivities of Different Dopamine Receptors in Mouse Brain," Nature, 257, 405 (1975). Each mouse was administered from 0.1 to 50 mg/kg of test compound and antagonism was observed 20 minutes after injection of 1 mg/kg apomorphine induced climbing behavior.

[3] = system: dopamine receptors; details: cited from earlier work
[4] = ip, i.p. (marked in cell; head prints s.c.)
[5] = oral (marked in cell; head prints s.c.)

**Q.** With `CCN1CCCC1CNC(=O)c1cccc2cc(C)oc12` (centres unmarked) [drawing 97 R = CH3] as the molecule, how does the ED100 [1] read?
**A.** The ED100 was 10 mg/kg.

**Q.** What about the ED50 [2, 4] of the same molecule?
**A.** Its ED50 is roughly 3 mg/kg.

**Q.** For `CCN1CCCC1CNC(=O)c1cccc2c1OC(C)(C)C2` (centres unmarked) [drawing 109 R1 = R2 = CH3], which ED100 [1] is on record?
**A.** The ED100 was 10 mg/kg.

**Q.** And the ED50 [2, 4]?
**A.** Its ED50 is roughly 100 mg/kg.

**Q.** For `CCN1CCCC1CNC(=O)c1cc(Cl)cc2ccoc12.O=C(O)/C=C/C(=O)O` (centres unmarked) [drawing 105 R = Cl R' = H, 5-chloro-N-(1-ethyl-2-pyrrolidinylmethyl)benzo[b]furan-7-carboxamide fumarate], which ED100 [1] is on record?
**A.** Its ED100 is 0.1 mg/kg.

**Q.** What about the ED50 [2, 5] of the same molecule?
**A.** The ED50 was roughly 5 mg/kg.

**Q.** For `O=C(NC1CCN(Cc2ccccc2)C1)c1cc(Br)cc2ccoc12` (centres unmarked), which ED50 [2, 4] is on record?
**A.** Its ED50 is roughly 30 mg/kg.

**Q.** Which ED100 [1] does the source give for `CCN1CCCC1CNC(=O)c1cc([N+](=O)[O-])cc2c1OCC2` (centres unmarked) [drawing 98 R = NO2, N-(1-ethyl-2-pyrrolidinylmethyl)-5-nitro-2,3-dihydrobenzo[b]furan-7-carboxamide] here?
**A.** The ED100 was 1 mg/kg.

**Q.** What about the ED50 [2, 5] of the same molecule?
**A.** The ED50 was roughly 15 mg/kg.

**Q.** What about the ED50 [2, 4] of the same molecule?
**A.** Its ED50 is roughly 20 mg/kg.

**Q.** Which results are given for `CCN1CCCC1CNC(=O)c1cccc2c1OC(C)C2` (centres unmarked) [drawing 109 R1 = H,R2 = CH3]?
**A.** 100% Effect Dosage level (dosage at which both animals were protected from apomorphine emesis) [1]: 0.85 mg/kg; Approx. 50% ED, apomorphine climbing ([2]; i.p. (marked in cell; head prints s.c.)): ~20 mg/kg

**Q.** For `CCN1CCCC1CNC(=O)c1cccc2c1OC(C)C2` (centres unmarked) [drawing 99 R = H R' = H], which “100% Effect Dosage level (dosage at which both animals were protected from apomorphine emesis)” value [1] is on record?
**A.** The value was 0.05 mg/kg.

**Q.** And the ED50 [2, 4]?
**A.** Its ED50 is roughly 20 mg/kg.

**Q.** With `CCN1CCCC1CNC(=O)c1cc(F)cc2ccoc12` (centres unmarked) [drawing 105 R = F R' = H] as the molecule, how does the ED100 [1] read?
**A.** Its ED100 is 1 mg/kg.

**Q.** For `CCN1CCCC1CNC(=O)c1cc(Cl)c(Cl)c2c1OC(C)C2` (centres unmarked) [drawing 99 R = Cl R' = Cl], which ED50 [2, 5] is on record?
**A.** The ED50 was roughly 10 mg/kg.

**Q.** For `CCN1CCCC1CNC(=O)c1cc(Br)cc2ccoc12` (centres unmarked), which ED100 [1] is on record?
**A.** The ED100 was 0.1 mg/kg.

**Q.** And the ED50 [2, 4]?
**A.** The ED50 was roughly 0.5 mg/kg.

**Q.** With `CCN1CCCC1CNC(=O)c1cc(Br)cc2c1OC(C)C2` (centres unmarked) [drawing 99 R = Br R' = H] as the molecule, how does the ED100 [1] read?
**A.** Its ED100 is 0.005 mg/kg.

**Q.** And the ED50 [2, 4]?
**A.** The ED50 was roughly 2 mg/kg.

**Q.** Which results are given for `CCN1CCCC1CNC(=O)c1cc(N)cc2c1OCC2.O=C(O)/C=C/C(=O)O` (centres unmarked) [drawing 98 R = NH2, 5-amino-N-(1-ethyl-2-pyrrolidinylmethyl)-2,3-dihydrobenzo[b]furan-7-carboxamide fumarate]?
**A.** ED50 [2, 5]: ~20 mg/kg; ED50 [2, 4]: ~25 mg/kg

**Q.** For `CCN1CCCC1CNC(=O)c1ccc(Cl)c2c1OC(C)C2.O=C(O)/C=C/C(=O)O` (centres unmarked) [drawing 99 R = H R' = Cl, 4-chloro-N-(1-ethyl-2-pyrrolidinylmethyl)-2-methyl-2,3-dihydrobenzo[b]furan-7-carboxamide fumarate], which ED50 [2, 5] is on record?
**A.** The ED50 was roughly 40 mg/kg.

**Q.** What about the ED50 [2, 4] of the same molecule?
**A.** Its ED50 is roughly 25 mg/kg.

**Q.** For `CCN1CCCC1CNC(=O)c1cc(Br)cc2c1OCC2` (centres unmarked) [drawing 98 R = Br], which ED100 [1] is on record?
**A.** Its ED100 is 1 mg/kg.

**Q.** And the ED50 [2, 5]?
**A.** The ED50 was roughly 15 mg/kg.

**Q.** Which ED100 [1] does the source give for `CCN1CCCC1CNC(=O)c1cccc2c1OCC2` (centres unmarked) [drawing 98 R = H] here?
**A.** The ED100 was 1 mg/kg.

**Q.** What about the ED50 [2, 4] of the same molecule?
**A.** Its ED50 is roughly 20 mg/kg.

**Q.** What does the source list for `CCN1CCCC1CNC(=O)c1cccc2ccoc12` (centres unmarked) [drawing 97 R = H]?
**A.** ED100 [1]: 10 mg/kg; ED50 [2, 4]: ~12 mg/kg

**Q.** With `CCN1CCCC1CNC(=O)c1cc(C)cc2c1OCC2.Cl` (centres unmarked) [drawing 98 R = CH3, N-(1-ethyl-2-pyrrolidinylmethyl)-5-methyl-2,3-dihydrobenzo[b]furan-7-carboxamide hydrochloride] as the molecule, how does the ED100 [1] read?
**A.** Its ED100 is 0.1 mg/kg.

**Q.** What about the ED50 [2, 4] of the same molecule?
**A.** Its ED50 is roughly 3 mg/kg.

**Q.** What does the source list for `CCN1CCCC1CNC(=O)c1cc(OC)cc2c1OC(C)C2` (centres unmarked) [drawing 99 R = OCH3 R' = H]?
**A.** ED100 [1]: 0.1 mg/kg; ED50 [2, 5]: ~1 mg/kg; ED50 [2, 4]: ~25 mg/kg

**Q.** For `CCN1CCCC1CNC(=O)c1cc(Cl)cc2c1OCC2` (centres unmarked) [drawing 98 R = Cl], which ED100 [1] is on record?
**A.** The ED100 was 1 mg/kg.

**Q.** And the ED50 [2, 5]?
**A.** The ED50 was roughly 15 mg/kg.

**Q.** What about the ED50 [2, 4] of the same molecule?
**A.** The ED50 was roughly 5 mg/kg.

**Q.** What does the source list for `CCN1CCCC1CNC(=O)c1cc(NS(C)(=O)=O)cc2c1OCC2` (centres unmarked) [drawing 98 R = NHSO2 CH3, N-(1-ethyl-2-pyrrolidinylmethyl)-5-methanesulfonamido-2,3-dihydrobenzo[b]furan-7-carboxamide]?
**A.** ED100 [1]: 1 mg/kg; ED50 [2, 5]: ~50 mg/kg

**Q.** For `CCN1CCCC1CNC(=O)c1cc(NC(C)=O)cc2c1OCC2.O=C(O)/C=C/C(=O)O` (centres unmarked) [drawing 98 R = NHCOCH3, 5-acetamido-N-(1-ethyl-2-pyrrolidinylmethyl)-2,3-dihydrobenzo[b]furan-7-carboxamide fumarate], which ED50 [2, 4] is on record?
**A.** Its ED50 is roughly 50 mg/kg.

**Q.** Which ED50 [2, 5] does the source give for `CCN1CCCC1CNC(=O)c1ccc(OC)c2c1OC(C)C2` (centres unmarked) [drawing 99 R = H R' = OCH3] here?
**A.** Its ED50 is roughly 25 mg/kg.

**Q.** For `CCN1CCCC1CNC(=O)c1cc(S(N)(=O)=O)ccc1OC` (centres unmarked) [sulpiride, 2-methoxy-N-(1-ethyl-2-pyrrolidinylmethyl)-5-sulfamoyl benzamide], which “release of prolactin (side effect)” value [3] is on record?
**A.** Its value is “increase in the release of prolactin”.

**Q.** Which “release of prolactin (side effect)” value [3] does the source give for `CCN(CC)CCNC(=O)c1cc(Cl)c(N)cc1OC` [metoclopramide, 4-amino-5-chloro-N-[(2-diethylamino)ethyl]-2-methoxybenzamide] here?
**A.** The value was “increase in the release of prolactin”.
